Publication PMC6994103 (PLoS Neglected Tropical Diseases, 2020)

Legend:
[1] = tested on: VERO cells; assay: Toxicity assay in VERO cells (gentian violet staining); assay type: cell-based, African green monkey; conditions: IC50 in VERO cells / IC50 in trypomastigotes (Y strain)
Protocol: VERO cells (African green monkey Kidney, ATCC CCL-81) were cultured in MEM medium supplemented with 10% heat inactivated FCS, 0.15% (w/v) NaHCO3, 100 U/mL penicillin and 100 U/mL streptomycin at 37°C in 5% CO2.
The toxicity of the compounds was determined in VERO cells by the gentian violet staining assay. Briefly, the cells (1 x10^4 cells/well) were incubated in 96-well plates with the indicated compound or dimethyl sulfoxide (DMSO) as negative control and maintained at 37° C for 24 h. Then the cells were fixed for 15 min, and stained with 0.5% gentian violet. The absorbance was measured at 570 nm. The selectivity index (SI) was calculated for each CV analogue as the ratio between the IC50 obtained in mammalian cells and the IC50 in trypomastigotes. For the combined treatment, the results were presented as percentage of untreated cells.

[2] = tested on: proline transporter TcAAAP069; assay: Proline transport assay in wild type (TcWT) epimastigotes; assay type: cell-based, Trypanosoma cruzi; conditions: for proline transport inhibition at 25 μM and 100 μM: TcWT epimastigotes, preliminary
Protocol: (§1) Aliquots of epimastigote cultures (10^7 parasites) were centrifuged at 8,000 xg for 30 s, and washed once with PBS. […] Following incubation at 28°C, reaction was stopped by adding 1 mL of ice-cold PBS. Cells were centrifuged as indicated above, and washed twice with ice-cold PBS. Cell pellets were resuspended in 0.2 mL of water and counted for radioactivity in UltimaGold XR liquid scintillation cocktail (Packard Instrument Co., Meridien CT, USA). Cell viability was assessed by direct microscopic examination and viability assays by using “Cell Titer 96 Aqueous One Solution Cell Proliferation Assay (MTS)” (Promega, Madison, WI, USA) according to the manufacturer instructions. […] Non-specific uptake and carry over were assayed without incubation (T0), or incubated at 4°C. […] As a control, regular PBS buffer was used.

[3] = tested on: proline transporter TcAAAP069; assay: Proline transport assay in TcAAAP069 overexpressing (Tc069) epimastigotes; assay type: cell-based, Trypanosoma cruzi; conditions: Tc069 vs TcWT
Protocol: as §1

[4] = tested on: T. cruzi Tc069 epimastigotes Y strain; assay: Trypanocidal activity in TcAAAP069 overexpressing (Tc069) epimastigotes; assay type: cell-based, Trypanosoma cruzi; conditions: Tc069 vs TcWT
Protocol: (§2) Epimastigotes of T. cruzi were cultured as described above, in 24-wells plate at a start density of 0.5 x10^7 cells/mL in BHT medium. Parasites´ growth was evaluated at different concentrations of BZL, CV and CV structural analogues, and parasite proliferation was determined after 48 h. Trypanocidal activity in trypomastigotes and amastigotes was performed using 1 x10^6 cells/mL in 96-well plates and incubating at 37°C for 24 h in the presence of the corresponding drug. Growth was determined by counting in a Neubauer chamber and viability assays by using “Cell Titer 96 Aqueous One Solution Cell Proliferation Assay (MTS)” (Promega, Madison, WI, USA) according to the manufacturer’s instructions. Amastigotes were fixed with methanol, stained and mounted with Vectashield with DAPI (Vector Laboratories, Burlingame, CA, USA), and then the non-lysed cells were counted by using fluorescence microscopy.

[5] = tested on: T. cruzi epimastigotes Dm28c strain; assay: Trypanocidal activity in epimastigotes, Dm28c strain; assay type: cell-based, Trypanosoma cruzi; conditions: Dm28c vs Y
Protocol: (§3) VERO cells (5 x10^4 per well) were infected with trypomastigotes (2.5 ×10^5 per well) for 4 h. After this period, the infected cells were washed twice with phosphate-buffered saline (PBS), the MEM medium was replaced, and the cells were kept in culture at 37°C, 5% CO2. In order to obtain intracellular amastigotes, the cells were lysed 4 days after infection using a cell scraper, collected, washed twice with PBS (or MEM) and counted using a hemocytometer. Trypomastigotes were obtained from infected VERO cells as previously described.
as §2

[6] = tested on: T. cruzi epimastigotes CL Brener strain; assay: Trypanocidal activity in epimastigotes, CL Brener strain; assay type: cell-based, Trypanosoma cruzi; conditions: CL Brener vs Y
Protocol: as §3
Epimastigotes of T. cruzi were cultured as described above, in 24-wells plate at a start density of 0.5 x10^7 cells/mL in BHT medium. Parasites´ growth was evaluated at different concentrations of BZL, CV and CV structural analogues, and parasite proliferation was determined after 48 h. […] Growth was determined by counting in a Neubauer chamber and viability assays by using “Cell Titer 96 Aqueous One Solution Cell Proliferation Assay (MTS)” (Promega, Madison, WI, USA) according to the manufacturer’s instructions. Amastigotes were fixed with methanol, stained and mounted with Vectashield with DAPI (Vector Laboratories, Burlingame, CA, USA), and then the non-lysed cells were counted by using fluorescence microscopy.

`CC(C)/N=c1\cc2n(-c3ccc(Cl)cc3)c3ccccc3nc-2cc1Nc1ccc(Cl)cc1` [Clofazimine] was tested, and the “Selectivity Index” value [1] was 36.1.

With `CN(C)c1ccc(C(=C2C=CC(=[N+](C)C)C=C2)c2ccc(N(C)C)cc2)cc1` [Crystal Violet] the “effect on pH dependency of proline transport” value ([2]; CV 10 μM, citrate buffer pH 5.0-6.5) was “did not alter the pH dependency”, the “proline transport inhibition in the absence of Na+ or K+ cations” value ([2]; CV 10 μM, modified PBS vs regular PBS) was “No differences were observed” and the “mechanism of inhibition of proline transport” value ([2]; TcWT, listed as CV) was “reversible competitive mechanism of inhibition”. The “fold increase of proline transport IC50 in Tc069 vs control parasites” value [3] was 2.5 fold, the “fold reduction of trypanocidal IC50 in Tc069 vs wild type” value [4] was 47 fold and the “fold lower IC50 in Dm28c than in Y epimastigotes” value [5] was 31.8 fold. The “fold lower IC50 in CL Brener than in Y epimastigotes” value [6] was 4.0 fold.

In the case of `Nc1ccc(S(=O)(=O)c2ccc(N)cc2)cc1` [Dapsone], the “proline transport inhibition at 25 μM and 100 μM” value [2] is reported as “did not inhibit the proline transport in any concentration assayed”.

For `Cc1cc2c(s1)Nc1ccccc1N=C2N1CCN(C)CC1` [Olanzapine], the “proline transport inhibition at 25 μM and 100 μM” value [2] was “only inhibited proline transport at 100 μM” and the “concentration producing death of parasites in the lapse time of the transport assay” value ([2]; epimastigotes) was “over 300 μM”.
